{"source": "patent US12715832B2", "about": "“Co-crystal of coenzyme QH and nicotinamide, preparation method therefor and use thereof” (COCRYSTAL TECHNOLOGY (JIAXING) CO., LTD, priority 2021, dated 2026)", "origin": "cited, not measured here", "conditions": "in the air at 25° C. for 28 days", "data": [{"smiles": "COc1c(O)c(C)c(C/C=C(\\C)CC/C=C(\\C)CC/C=C(\\C)CC/C=C(\\C)CC/C=C(\\C)CC/C=C(\\C)CC/C=C(\\C)CC/C=C(\\C)CC/C=C(\\C)CCC=C(C)C)c(O)c1OC", "note": "[stable polymorph of coenzyme QH, coenzyme QH]", "values": [{"measurement": "coenzyme QH oxidized", "value": "about 6%"}]}]}
